Publication PMC9516332 (Frontiers in Oncology, 2022)
Read-outs that look alike come from different tables or passages of the source.

Legend:
134 cancer cell lines [1] = tested on: 134 cancer cell lines
AP-1060 (ETV6-NTRK3) = assay: Cell viability assay; details: read-out: IC50 in cell proliferation assay
134 cancer cell lines [2] = assay: Cell viability assay (ATPlite, 72 hours), IC50 on cancer cell line panel

Compound: Cc1cc(Nc2ncnc3ccc(NC4=NC(C)(C)CO4)cc23)ccc1Oc1ccn2ncnc2c1 [tucatinib]
- IC50 (134 cancer cell lines [1]): 6.88 µM
- IC50 (AP-1060 (ETV6-NTRK3)): 29.1 µM
- IC50 (134 cancer cell lines [2]; HEC-6, read-out: IC50 in cell proliferation assay, HEC-6 cell line (EGFR p.A289V)): 14.8 µM
- IC50 (134 cancer cell lines [2]; Homo sapiens, 769-P, read-out: IC50 in cell proliferation assay, cell line 769-P): 20.2 µM
- IC50 (134 cancer cell lines [2]; Homo sapiens, 786-0, read-out: IC50 in cell proliferation assay, cell line 786-O): 21.3 µM
- IC50 (134 cancer cell lines [2]; Homo sapiens, A 172, read-out: IC50 in cell proliferation assay, cell line A-172): 17.4 µM
- IC50 (134 cancer cell lines [2]; Homo sapiens, A204, read-out: IC50 in cell proliferation assay, cell line A-204): 11.4 µM
- IC50 (134 cancer cell lines [2]; Homo sapiens, A498, read-out: IC50 in cell proliferation assay, cell line A-498): 20.4 µM
- IC50 (134 cancer cell lines [2]; Homo sapiens, A549, read-out: IC50 in cell proliferation assay, cell line A-549): 25.7 µM
- IC50 (134 cancer cell lines [2]; Homo sapiens, A704, read-out: IC50 in cell proliferation assay, cell line A-704): > 31.6 µM
- IC50 (134 cancer cell lines [2]; Homo sapiens, A-375, read-out: IC50 in cell proliferation assay, cell line A-375 (BRAF p.V600E)): 11.3 µM
- IC50 (134 cancer cell lines [2]; Homo sapiens, A-427, read-out: IC50 in cell proliferation assay, cell line A-427): 22.2 µM
- IC50 (134 cancer cell lines [2]; Homo sapiens, ACHN, read-out: IC50 in cell proliferation assay, cell line ACHN): 13.9 µM
- IC50 (134 cancer cell lines [2]; Homo sapiens, AN3-CA, read-out: IC50 in cell proliferation assay, cell line AN3-CA (FGFR2 p.N549K)): 24.5 µM
- IC50 (134 cancer cell lines [2]; Homo sapiens, ASPC1, read-out: IC50 in cell proliferation assay, cell line AsPC-1): > 31.6 µM
- IC50 (134 cancer cell lines [2]; Homo sapiens, AU565, read-out: IC50 in cell proliferation assay, cell line AU565 (ERBB2 amplification)): 0.125 µM
- IC50 (134 cancer cell lines [2]; Homo sapiens, BT-20, read-out: IC50 in cell proliferation assay, cell line BT-20): 28.8 µM
- IC50 (134 cancer cell lines [2]; Homo sapiens, BT-474, read-out: IC50 in cell proliferation assay, cell line BT-474 (ERBB2 amplification)): 0.029 µM
- IC50 (134 cancer cell lines [2]; Homo sapiens, BT-549, read-out: IC50 in cell proliferation assay, cell line BT-549): 15.9 µM
- IC50 (134 cancer cell lines [2]; Homo sapiens, BXPC-3, read-out: IC50 in cell proliferation assay, cell line BxPC-3): 12.6 µM
- IC50 (134 cancer cell lines [2]; Homo sapiens, C-33-A, read-out: IC50 in cell proliferation assay, cell line C-33 A): 0.412 µM
- IC50 (134 cancer cell lines [2]; Homo sapiens, CAL-27, read-out: IC50 in cell proliferation assay, cell line CAL-27): 13.7 µM
- IC50 (134 cancer cell lines [2]; Homo sapiens, CCF-STTG1, read-out: IC50 in cell proliferation assay, cell line CCF-STTG1): > 31.6 µM
- IC50 (134 cancer cell lines [2]; Homo sapiens, CCRF-CEM, read-out: IC50 in cell proliferation assay, cell line CCRF-CEM): 17.7 µM
- IC50 (134 cancer cell lines [2]; Homo sapiens, COLO 205, read-out: IC50 in cell proliferation assay, cell line COLO 205 (BRAF p.V600E)): 22.2 µM
- IC50 (134 cancer cell lines [2]; Homo sapiens, COLO-829, read-out: IC50 in cell proliferation assay, cell line COLO 829 (BRAF p.V600E)): 20.6 µM
- IC50 (134 cancer cell lines [2]; Homo sapiens, DLD-1, read-out: IC50 in cell proliferation assay, cell line DLD-1): 23.2 µM
- IC50 (134 cancer cell lines [2]; Homo sapiens, DU-4475, read-out: IC50 in cell proliferation assay, cell line DU4475 (BRAF p.V600E)): 10.7 µM
- IC50 (134 cancer cell lines [2]; Homo sapiens, Daoy, read-out: IC50 in cell proliferation assay, cell line Daoy): 30.2 µM
- IC50 (134 cancer cell lines [2]; Homo sapiens, DoTc2-4510, read-out: IC50 in cell proliferation assay, cell line DoTc2 4510): 5.59 µM
- IC50 (134 cancer cell lines [2]; Homo sapiens, EOL1, read-out: IC50 in cell proliferation assay, cell line EoL-1 (FIP1L1-PDGFRA)): 4.24 µM
- IC50 (134 cancer cell lines [2]; Homo sapiens, FaDu, read-out: IC50 in cell proliferation assay, cell line FaDu): 14.1 µM
- IC50 (134 cancer cell lines [2]; Homo sapiens, G-361, read-out: IC50 in cell proliferation assay, cell line G-361 (BRAF p.V600E)): 13.5 µM
- IC50 (134 cancer cell lines [2]; Homo sapiens, HCC827, read-out: IC50 in cell proliferation assay, cell line HCC827 (EGFR exon19del)): 2.38 µM
- IC50 (134 cancer cell lines [2]; Homo sapiens, HCC4006, read-out: IC50 in cell proliferation assay, cell line HCC4006 (EGFR exon19del)): 6.56 µM
- IC50 (134 cancer cell lines [2]; Homo sapiens, HCT-15, read-out: IC50 in cell proliferation assay, cell line HCT 15): 16.7 µM
- IC50 (134 cancer cell lines [2]; Homo sapiens, HCT-116, read-out: IC50 in cell proliferation assay, cell line HCT 116): 21.9 µM
- IC50 (134 cancer cell lines [2]; Homo sapiens, HEC-1, read-out: IC50 in cell proliferation assay, HEC-1 cell line): 13.9 µM
- IC50 (134 cancer cell lines [2]; Homo sapiens, HEC-1B, read-out: IC50 in cell proliferation assay, HEC-1-B cell line (EGFR p.A864V)): 1.62 µM
- IC50 (134 cancer cell lines [2]; Homo sapiens, HL-60, read-out: IC50 in cell proliferation assay, HL-60 cell line): 16.9 µM
- IC50 (134 cancer cell lines [2]; Homo sapiens, HT, read-out: IC50 in cell proliferation assay, HT cell line): 29.9 µM
- IC50 (134 cancer cell lines [2]; Homo sapiens, HT-1080, read-out: IC50 in cell proliferation assay, HT-1080 cell line): 17.2 µM
- IC50 (134 cancer cell lines [2]; Homo sapiens, Hs746T, read-out: IC50 in cell proliferation assay, Hs 746.T cell line (MET exon14skip + amplification)): 12.4 µM
- IC50 (134 cancer cell lines [2]; Homo sapiens, Hs-578T, read-out: IC50 in cell proliferation assay, Hs 578T cell line): 24.1 µM
- IC50 (134 cancer cell lines [2]; Homo sapiens, HuTu80, read-out: IC50 in cell proliferation assay, HuTu 80 cell line): 0.623 µM
- IC50 (134 cancer cell lines [2]; Homo sapiens, J82, read-out: IC50 in cell proliferation assay, J82 cell line): > 31.6 µM
- IC50 (134 cancer cell lines [2]; Homo sapiens, Jurkat E6.1, read-out: IC50 in cell proliferation assay, Jurkat E6.1 cell line): 14.7 µM
- IC50 (134 cancer cell lines [2]; Homo sapiens, K562, read-out: IC50 in cell proliferation assay, K-562 cell line): 8.53 µM
- IC50 (134 cancer cell lines [2]; Homo sapiens, KATO III, read-out: IC50 in cell proliferation assay, KATO III cell line (FGFR2 amplification)): 17.9 µM
- IC50 (134 cancer cell lines [2]; Homo sapiens, KG-1, read-out: IC50 in cell proliferation assay, KG-1 cell line (FGFR1OP2-FGFR1)): 16.2 µM
- IC50 (134 cancer cell lines [2]; Homo sapiens, KLE, read-out: IC50 in cell proliferation assay, KLE cell line): 4.74 µM
- IC50 (134 cancer cell lines [2]; Homo sapiens, KMS-11, read-out: IC50 in cell proliferation assay, KMS-11 cell line (FGFR3 p.Y373C)): 18.2 µM
- IC50 (134 cancer cell lines [2]; Homo sapiens, KU812, read-out: IC50 in cell proliferation assay, Ku812 cell line): 22.6 µM
- IC50 (134 cancer cell lines [2]; Homo sapiens, Kasumi 1, read-out: IC50 in cell proliferation assay, Kasumi-1 cell line (KIT p.N822K)): 24.3 µM
- IC50 (134 cancer cell lines [2]; Homo sapiens, LC-2-ad, read-out: IC50 in cell proliferation assay, LC-2/ad cell line (CCDC6-RET)): 22.5 µM
- IC50 (134 cancer cell lines [2]; Homo sapiens, LNCaP-Clone-FGC, read-out: IC50 in cell proliferation assay, LNCaP clone FGC cell line): 21.8 µM
- IC50 (134 cancer cell lines [2]; Homo sapiens, LS174T, read-out: IC50 in cell proliferation assay, LS174T cell line): 20.3 µM
- IC50 (134 cancer cell lines [2]; Homo sapiens, LS-411N, read-out: IC50 in cell proliferation assay, LS411N cell line (BRAF p.V600E)): 21.4 µM
- IC50 (134 cancer cell lines [2]; Homo sapiens, LoVo, read-out: IC50 in cell proliferation assay, LoVo cell line): 25.7 µM
- IC50 (134 cancer cell lines [2]; Homo sapiens, MCF7, read-out: IC50 in cell proliferation assay, MCF-7 cell line): 30.5 µM
- IC50 (134 cancer cell lines [2]; Homo sapiens, MDA-MB-231, read-out: IC50 in cell proliferation assay, MDA-MB-231 cell line): 22.5 µM
- IC50 (134 cancer cell lines [2]; Homo sapiens, MDA-MB-453, read-out: IC50 in cell proliferation assay, MDA-MB-453 cell line): 5.93 µM
- IC50 (134 cancer cell lines [2]; Homo sapiens, MDA-MB-468, read-out: IC50 in cell proliferation assay, MDA-MB-468 cell line): 8.88 µM
- IC50 (134 cancer cell lines [2]; Homo sapiens, MG-63, read-out: IC50 in cell proliferation assay, MG-63 cell line): 29.4 µM
- IC50 (134 cancer cell lines [2]; Homo sapiens, MIA PaCa-2, read-out: IC50 in cell proliferation assay, MIA PaCa-2 cell line): 18.3 µM
- IC50 (134 cancer cell lines [2]; Homo sapiens, MKN-45, read-out: IC50 in cell proliferation assay, MKN45 cell line (MET amplification)): 17.1 µM
- IC50 (134 cancer cell lines [2]; Homo sapiens, MOLM-13, read-out: IC50 in cell proliferation assay, MOLM-13 cell line (FLT3 ITD)): 14.3 µM
